Source: patent publication US10286022B2, “Medicinal composition of extract of seed of emblica officinalis and method of preparing the same” (priority 2013, dated 2019)

Experiments:
[1] = tested on: Triton WR 1339 induced dyslipidemia in Albino rats (Sprague Dawley strain); assay: Screening of hypolipidemic activity, Triton WR 1339 induced dyslipidemia model (Example 18); type: in vivo, rat
Description: Twenty four male Albino rats (Sprague Dawley strain) weighing approximate 250-300 gm were selected for the study. The animals were kept in the animal house maintained at temp 24±2° C., 65% relative humidity and 12 hr light/dark cycle. The rats were acclimatized for two weeks and during this period they had access to standard pellet diet and water ad libitum. After two weeks of acclimatization, all the rats were fasted overnight before injecting Triton WR 1339 (Tyloxapol) and administration of test extracts/standard. The animals were divided into four groups Following treatment was given to overnight fasted rats: • Group I: Normal control (vehicle only). • Group II: Triton WR 1339 (300 mg/kg, intraperitoneal). • Group III: Triton WR 1339 (300 mg/kg, intraperitoneal) followed by amla seed extract prepare as per example 1 (10 mg/kg, per oral). • Group IV: Triton WR 1339 (300 mg/kg, intraperitoneal) followed by Atorvastatin (10 mg/kg, per oral).
(§1) The animals were deprived of food for next 24 hours but had free access to water ad libitum. After 24 hour of drug treatment 2 ml blood samples were collected from the retro orbital plexus. The blood was allowed to clot and then centrifuged at 3000 rpm for 10 min and the serum was carefully drawn and collected into separate tubes. The serum was analyzed for total cholesterol, triglycerides, high density lipoproteins (HDL), low density lipoproteins (LDL) and very low density lipoproteins (VLDL) levels using auto-analyzer.

[2] = tested on: Triton WR 1339 induced dyslipidemia in Albino rats (Sprague Dawley strain); assay: Hypolipidemic activity compared with other amla extracts, Triton WR 1339 model (Example 25); type: in vivo, rat
Description: Forty eight male Albino rats (Sprague Dawley strain) weighing approximate 250-300 gm were selected for the study. The animals were kept in the animal house maintained at temp 24±2° C., 65% relative humidity and 12 hr light/dark cycle. The rats were acclimatized for two weeks and during this period they had access to standard pellet diet and water ad libitum. After two weeks of acclimatization, all the rats were fasted overnight before injecting Triton WR 1339 (Tyloxapol) and administration of test extracts/standard. The animals were divided into twelve groups. Following treatment was given to overnight fasted rats: • Group I: Normal control (vehicle only). • Group II: Triton WR 1339 (300 mg/kg, intraperitoneal). • Group III: Triton WR 1339 (300 mg/kg, intraperitoneal) followed by ethyl acetate of methanol extract of amla seed prepared as per example 1 (2.5 mg/kg, per oral). • Group IV: Triton WR 1339 (300 mg/kg, intraperitoneal) followed by water part of methanol extract of amla seed prepared as per example 1 (2.5 mg/kg, per oral). • Group V: Triton WR 1339 (300 mg/kg, intraperitoneal) followed by ethyl acetate extract of amla seed prepared as per example 2 (2.5 mg/kg, per oral). • Group VI: Triton WR 1339 (300 mg/kg, intraperitoneal) followed by powder of dried amla seed prepared as per example 7 (2.5 mg/kg, per oral). • Group VII: Triton WR 1339 (300 mg/kg, intraperitoneal) followed by water extract of dried amla seed powder prepared as per example 8 (2.5 mg/kg, per oral). • Group VIII: Triton WR 1339 (300 mg/kg, intraperitoneal) followed by methanol extract of dried amla seed powder prepared as per example 9 (2.5 mg/kg, per oral). • Group IX: Triton WR 1339 (300 mg/kg, intraperitoneal) followed by powder of dried amla fruit prepared as per example 10 (2.5 mg/kg, per oral). • Group X: Triton WR 1339 (300 mg/kg, intraperitoneal) followed by water extract of dried Amla fruit powder prepared as per example 11 (2.5 mg/kg, per oral). • Group XI: Triton WR 1339 (300 mg/kg, intraperitoneal) followed by methanol extract of dried amla fruit powder prepared as per example 12 (2.5 mg/kg, per oral). • Group XII: Triton WR 1339 (300 mg/kg, intraperitoneal) followed by atorvastatin (2.5 mg/kg, per oral).
as §1

[3] = 24 h after Triton i.p. + 10 mg/kg p.o.
[4] = 24 h after Triton i.p. + 2.5 mg/kg p.o.

In the case of `CC(C)c1c(C(=O)Nc2ccccc2)c(-c2ccccc2)c(-c2ccc(F)cc2)n1CC[C@@H](O)C[C@@H](O)CC(=O)O` [Atorvastatin], the “effect on cholesterol and triglyceride level” value ([1]; 10 mg/kg p.o.) is reported as “effective in lowering the cholesterol as well as triglyceride level”, the “HDL After” value [1, 3] is reported as 32.37 mg/dL and the “LDL After” value [1, 3] is reported as 77.61 mg/dL. The “TC After” value [1, 3] was 131.9 mg/dL, the “TG After” value [1, 3] was 109.67 mg/dL and the “VLDL After” value [1, 3] was 21.93 mg/dL. The “HDL Before” value ([1]; baseline, 10 mg/kg p.o. group) was 29.13 mg/dL, the “LDL Before” value ([1]; baseline, 10 mg/kg p.o. group) was 62.43 mg/dL and the “TC Before” value ([1]; baseline, 10 mg/kg p.o. group) was 100.4 mg/dL. The “TG Before” value ([1]; baseline, 10 mg/kg p.o. group) was 44.26 mg/dL, the “VLDL Before” value ([1]; baseline, 10 mg/kg p.o. group) was 8.85 mg/dL and the “effect on cholesterol and triglyceride levels” value ([2]; 2.5 mg/kg p.o.) was “effective in lowering the cholesterol as well as triglyceride levels”. The “HDL After” value [2, 4] was 39.56 mg/dL, the “LDL After” value [2, 4] was 44.53 mg/dL and the “TC After” value [2, 4] was 123.14 mg/dL. For the same molecule, the “TG After” value [2, 4] was 195.25 mg/dL, the “VLDL After” value [2, 4] was 39.05 mg/dL and the “HDL Before” value ([2]; baseline, 2.5 mg/kg p.o. group) was 36.54 mg/dL. For the same molecule, the “LDL Before” value ([2]; baseline, 2.5 mg/kg p.o. group) was 57.99 mg/dL, the “TC Before” value ([2]; baseline, 2.5 mg/kg p.o. group) was 104.44 mg/dL and the “TG Before” value ([2]; baseline, 2.5 mg/kg p.o. group) was 49.54 mg/dL. The “VLDL Before” value ([2]; baseline, 2.5 mg/kg p.o. group) was 9.91 mg/dL.
